Measurements reported in ChEMBL document CHEMBL1201862, “PubChem BioAssay data set” (2004).
Activity calls are given as the source filed them.

Columns and labels:
[1] = biological target: Protein disulfide-isomerase (Homo sapiens, UniProt P07237); experiment: inhibition of PDI-driven insulin aggregation – biochemical, turbidity, absorbance, cherry-picked samples, dose response (AID 602350); type: functional
[2] = HepG2 cell cytotoxicity, cytotoxicity control, set 6 (AID 602432); type: functional; details: Mycobacterium tuberculosis
[3] = viability loss in Vero cells – cell-based, purified and synthesized samples, set 8, cytotoxicity control for M. tuberculosis inhibitor project (AID 602431); type: functional; details: Mycobacterium tuberculosis
[4] = THP-1 cell cytotoxicity, cytotoxicity control, set 6 (AID 602433); type: functional; details: Mycobacterium tuberculosis
[5] = viability of uninfected HEp-2 cells – cell-based, HTS, cytotoxicity control for RSV inhibitor project, dose response (AID 2410); type: functional; details: human respiratory syncytial virus
[6] = Trypanosoma cruzi growth suppression in host cells – NIH3T3 host cells, beta-gal luminescence, confirmation (AID 2044); type: functional, cell-based;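 note: intracellular parasites grown in NIH/3T3 mouse fibroblasts as host cells; luminescent beta-galactosidase reporter signal from transgenic T. cruzi replicating inside host cells; inhibitors lower the luminescence signal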
[7] = NIH3T3 cell viability loss – ATP luminescence, mouse fibroblasts, counter-screen, dose response (AID 2010); type: functional, cell-based;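 note: cells exposed to compound for about 90 hours before reading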
[8] = biological target: T1, V-type proton ATPase subunit c' (Saccharomyces cerevisiae S288c, UniProt P32842); experiment: Dose Response of Small Molecules that Regulate V-ATPase Proton Transport in Yeast using pHLuorin, Powder Set1.; type: functional; details: read-out: EC50_MICROM
T1 sequence (P32842 whole entry): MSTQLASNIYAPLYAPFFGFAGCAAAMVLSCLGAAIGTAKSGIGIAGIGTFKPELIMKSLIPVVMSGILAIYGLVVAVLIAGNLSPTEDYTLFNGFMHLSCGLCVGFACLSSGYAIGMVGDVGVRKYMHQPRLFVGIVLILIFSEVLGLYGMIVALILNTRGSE

[9] = biological target: T1, V-type proton ATPase subunit c'; experiment: Dose Response with BCECF Assay for V-ATPase inhibitors that increase vacuolar pH, Powder Set 1.; type: functional; details: read-out: EC50_MICROM
CHO-K1 = experiment: (§1) Counterscreen for antagonists of the orexin 1 receptor (OX1R; HCRTR1): Homogeneous time resolved fluorescence (HTRF)-based cell-based dose response assay to identify antagonists of the parental CHO-K1 cell line. [Related pubchem assays (depositor defined):AID434989, AID435008, AID463079, AID485270, AID492963, AID492964, AID492965, AID493232, AID504699, AID504701]; type: functional; details: Cricetulus griseus
[10] = biological target: T2, Orexin/Hypocretin receptor type 1 (Homo sapiens, UniProt O43613); experiment: Homogeneous Time Resolved Fluorescence (HTRF)-based cell-based high throughput dose response assay for antagonists of the orexin 1 receptor (OX1R; HCRTR1). [Related pubchem assays (depositor defined):AID434989, AID435008, AID463079, AID485270, AID492963, AID492964, AID492965, AID493232, AID504717, AID504718]; type: functional
T2 sequence (O43613 whole entry): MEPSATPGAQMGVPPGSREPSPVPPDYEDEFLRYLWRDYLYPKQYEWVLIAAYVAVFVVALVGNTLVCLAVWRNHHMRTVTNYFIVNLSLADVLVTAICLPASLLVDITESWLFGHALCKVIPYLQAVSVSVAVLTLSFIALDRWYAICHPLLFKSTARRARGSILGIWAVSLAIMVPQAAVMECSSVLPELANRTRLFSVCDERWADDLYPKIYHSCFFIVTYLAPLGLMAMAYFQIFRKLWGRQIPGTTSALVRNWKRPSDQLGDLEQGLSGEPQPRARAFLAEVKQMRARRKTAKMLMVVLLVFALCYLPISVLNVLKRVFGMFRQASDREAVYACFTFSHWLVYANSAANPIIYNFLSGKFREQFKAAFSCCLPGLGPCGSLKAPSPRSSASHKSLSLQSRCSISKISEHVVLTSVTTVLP

Orexin receptor type 2 [11] = biological target: T3, Orexin receptor type 2 (Homo sapiens, UniProt O43614); experiment: Counterscreen assay for antagonists of the orexin 1 receptor (OX1R; HCRTR1): Fluorescence-based cell-based dose response assay for antagonists of the orexin 2 receptor (OX2R; HCRTR2), run by assay provider.; type: functional
T3 sequence (O43614 whole entry): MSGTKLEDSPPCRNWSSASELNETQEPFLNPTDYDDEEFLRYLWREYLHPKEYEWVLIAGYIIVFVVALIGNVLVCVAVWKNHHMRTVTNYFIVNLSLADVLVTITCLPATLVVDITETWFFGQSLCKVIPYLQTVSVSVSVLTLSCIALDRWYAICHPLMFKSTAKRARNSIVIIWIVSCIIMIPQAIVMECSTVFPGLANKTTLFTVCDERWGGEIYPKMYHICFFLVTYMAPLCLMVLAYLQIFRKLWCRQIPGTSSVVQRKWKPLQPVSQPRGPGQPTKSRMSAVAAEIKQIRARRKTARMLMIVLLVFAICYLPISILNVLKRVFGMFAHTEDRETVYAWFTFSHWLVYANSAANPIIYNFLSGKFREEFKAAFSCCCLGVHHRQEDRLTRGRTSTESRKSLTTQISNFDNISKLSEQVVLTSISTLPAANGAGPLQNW

[12] = biological target: T4, Corticotropin-releasing factor receptor 2/Corticotropin-releasing factor-binding protein (Homo sapiens, UniProt P24387+Q13324); experiment: activators of CRF receptor 2 with binding protein – uHTS hits, confirmation (AID 602473); type: functional; details: read-out: EC50_Mean
T4 sequence (Q13324 whole entry): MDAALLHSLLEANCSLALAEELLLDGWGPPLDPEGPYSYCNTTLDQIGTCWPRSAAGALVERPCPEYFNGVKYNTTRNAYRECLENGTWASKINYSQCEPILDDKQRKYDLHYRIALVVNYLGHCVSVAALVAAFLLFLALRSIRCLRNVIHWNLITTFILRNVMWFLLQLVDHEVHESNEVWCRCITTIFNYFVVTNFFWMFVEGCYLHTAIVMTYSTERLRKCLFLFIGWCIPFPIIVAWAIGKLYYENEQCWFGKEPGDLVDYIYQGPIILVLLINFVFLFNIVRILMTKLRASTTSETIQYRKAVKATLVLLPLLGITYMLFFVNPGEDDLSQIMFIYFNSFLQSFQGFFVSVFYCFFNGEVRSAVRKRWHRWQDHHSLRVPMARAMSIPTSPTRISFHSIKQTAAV
T4 sequence (P24387 whole entry): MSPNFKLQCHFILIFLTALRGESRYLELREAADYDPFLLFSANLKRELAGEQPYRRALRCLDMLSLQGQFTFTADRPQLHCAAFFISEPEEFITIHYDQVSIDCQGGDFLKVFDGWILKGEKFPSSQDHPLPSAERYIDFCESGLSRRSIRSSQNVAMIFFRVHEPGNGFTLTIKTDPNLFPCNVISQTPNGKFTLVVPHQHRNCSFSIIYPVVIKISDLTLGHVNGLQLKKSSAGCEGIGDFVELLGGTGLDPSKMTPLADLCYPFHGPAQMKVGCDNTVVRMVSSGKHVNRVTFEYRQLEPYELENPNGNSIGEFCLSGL

[13] = as §1, with “Fluorescence-based” for “Homogeneous time resolved fluorescence (HTRF)-based”, “cell-based high throughput” for “cell-based”, “CHO” for “CHO-K1”; type: functional
Orexin receptor type 2 [14] = biological target: T3, Orexin receptor type 2; experiment: Counterscreen assay for antagonists of the orexin 1 receptor (OX1R; HCRTR1): Homogeneous Time Resolved Fluorescence (HTRF)-based cell-based dose response assay for antagonists of the orexin 2 receptor (OX2R; HCRTR2), run by assay provider.; type: functional
[15] = biological target: T2, Orexin/Hypocretin receptor type 1; experiment: Fluorescence-based cell-based high throughput dose response assay for antagonists of the orexin 1 receptor (OX1R; HCRTR1). [Related pubchem assays (depositor defined):AID434989, AID435008, AID463079, AID485270, AID492963, AID492964, AID492965, AID493232, AID504717, AID504718]; type: functional
[16] = biological target: T5, High affinity choline transporter 1 (Homo sapiens, UniProt Q9GZV3); experiment: human choline transporter potentiators, potency – cell-based, 10-point CRC, membrane potential dye, dose response (AID 602376); type: functional
T5 sequence (Q9GZV3 whole entry): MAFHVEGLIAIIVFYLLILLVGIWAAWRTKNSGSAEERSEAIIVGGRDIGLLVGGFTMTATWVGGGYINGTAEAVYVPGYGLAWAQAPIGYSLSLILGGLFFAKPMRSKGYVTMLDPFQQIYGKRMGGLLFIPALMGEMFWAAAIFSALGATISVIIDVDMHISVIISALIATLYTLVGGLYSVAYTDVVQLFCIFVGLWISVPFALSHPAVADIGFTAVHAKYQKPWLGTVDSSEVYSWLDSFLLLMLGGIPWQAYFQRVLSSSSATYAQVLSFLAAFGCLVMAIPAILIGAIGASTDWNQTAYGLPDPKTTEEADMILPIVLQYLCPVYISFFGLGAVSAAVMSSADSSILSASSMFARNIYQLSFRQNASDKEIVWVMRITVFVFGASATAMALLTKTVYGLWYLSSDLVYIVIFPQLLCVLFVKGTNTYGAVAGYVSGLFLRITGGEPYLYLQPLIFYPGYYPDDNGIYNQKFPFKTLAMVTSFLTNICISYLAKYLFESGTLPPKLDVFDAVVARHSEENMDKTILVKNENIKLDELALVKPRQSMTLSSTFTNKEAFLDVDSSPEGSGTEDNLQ

INS1 = experiment: INS-1E survival protection against cytokine death – cell-based, luminescence, retest, dose response (AID 449756); type: functional; details: Rattus norvegicus;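 note: cell death triggered by IL-1 beta plus TNF-alpha plus IFN-gamma mixture; protective hits raise ATP signal compared with cytokine alone wells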
[17] = fluconazole-exposed Candida albicans growth modulators – fluorescence, retest, confirmation (AID 2467); type: functional, cell-based
[18] = NIH-3T3 fibroblast cytotoxicity, dose response, cytotoxicity control, cell-based, fluorescence, Alamar Blue, secondary assay (AID 2327); type: functional;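 note: NIH-3T3 mouse fibroblasts cultured with fluconazole at 8 µg/mL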

Protein disulfide-isomerase, sequence (P07237 whole entry): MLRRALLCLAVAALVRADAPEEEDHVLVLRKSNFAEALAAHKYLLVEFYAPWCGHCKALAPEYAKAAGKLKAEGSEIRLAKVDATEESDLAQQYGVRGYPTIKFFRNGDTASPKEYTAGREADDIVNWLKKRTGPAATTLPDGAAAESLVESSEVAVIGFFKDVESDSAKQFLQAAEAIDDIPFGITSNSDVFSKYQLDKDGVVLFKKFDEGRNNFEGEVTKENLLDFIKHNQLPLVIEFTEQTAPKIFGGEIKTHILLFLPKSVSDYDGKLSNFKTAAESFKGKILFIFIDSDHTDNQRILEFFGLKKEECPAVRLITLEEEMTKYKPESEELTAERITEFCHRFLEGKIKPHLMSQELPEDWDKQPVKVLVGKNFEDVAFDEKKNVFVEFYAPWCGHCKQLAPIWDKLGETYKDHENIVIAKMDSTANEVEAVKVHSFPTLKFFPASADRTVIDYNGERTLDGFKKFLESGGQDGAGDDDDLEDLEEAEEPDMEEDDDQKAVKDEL

With Cc1c(O)ccc2c(CN3CCN(CCO)CC3)cc(=O)oc12 the AC50 [1] was 8.66 µM (active).

For O=C(NCc1ccc(C(=O)N2CCC(c3ccccc3)CC2)cc1)Nc1ccc(Cl)cc1, the CC50 [2] was 35 µM (active), the CC50 [3] was 40.1 µM (active) and the CC50 [4] was 24.7 µM (active).

In the case of O=C(c1ccc([N+](=O)[O-])o1)N1CCN(c2nc3c(Cl)cccc3s2)CC1, the CC50 [5] is reported as > 50 µM (active), the EC50 [6] is reported as 0.254 µM (active) and the EC50 [7] is reported as 20.6 µM (active). The EC50 [8] was 3.53 µM (active) and the EC50 [9] was 0.86 µM (active).

With Cc1cc(-c2ccc(N3CCOCC3)cc2)nc2ccccc12 the IC50 (CHO-K1) was > 66.2 µM (inactive), the IC50 [10] was 2.37 µM (active) and the IC50 (Orexin receptor type 2 [11]) was > 88.8 µM (inactive). For the same molecule, the EC50 [12] was > 53 µM (inactive), the IC50 [13] was > 49.8 µM (inactive) and the IC50 (Orexin receptor type 2 [14]) was 19.3 µM (inactive). The IC50 [15] was 5.3 µM (active).

In the case of COc1ccc(C)cc1Nc1n[n+](-c2ccccc2)c(-c2ccc(OC)c(OC)c2OC)s1, the EC50 [16] is reported as 12.1 µM (active), the EC50 [6] is reported as 0.215 µM (active) and the EC50 [7] is reported as > 30 µM (not active). The AC50 (INS1) was 11.2 µM (active), the EC50 [17] was 2.71 µM (active) and the EC50 [18] was > 160 µM (inactive).
